Here are results for 1 compound from US9150544B2 (priority 2011, dated 2015).

The experiment addresses human factor IXa (Homo sapiens (Human), UniProt P00740). The experiment can be described thus: biochemical. The following applies: read-out: Imax IXa (percentage inhibition at the maximum concentration tested).

human factor IXa, sequence (P00740 whole entry, looked up): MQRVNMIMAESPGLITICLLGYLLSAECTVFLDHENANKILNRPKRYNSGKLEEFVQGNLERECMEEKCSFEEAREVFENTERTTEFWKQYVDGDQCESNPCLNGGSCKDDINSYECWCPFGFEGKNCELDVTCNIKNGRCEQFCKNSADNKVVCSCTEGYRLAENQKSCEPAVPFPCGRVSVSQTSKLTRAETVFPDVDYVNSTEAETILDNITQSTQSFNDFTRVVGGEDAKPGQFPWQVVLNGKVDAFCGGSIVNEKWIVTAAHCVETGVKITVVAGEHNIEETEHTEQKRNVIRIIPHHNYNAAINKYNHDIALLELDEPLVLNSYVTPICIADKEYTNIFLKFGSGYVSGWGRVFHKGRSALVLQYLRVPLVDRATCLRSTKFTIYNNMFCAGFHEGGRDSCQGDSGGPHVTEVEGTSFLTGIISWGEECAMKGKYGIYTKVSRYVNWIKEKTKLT
human factor IXa, sequence (P00740 whole entry partner, looked up): as the sequence (P00740 whole entry, looked up) above

As for `COC(=O)[C@@H](Cc1cc2ccnc(N)c2cc1C(F)(F)F)N1CC[C@H](NS(=O)(=O)c2cnc(N3CCC(F)(F)C3)s2)C1=O` [Compound 90, (R)-3-(1-Amino-7-trifluoromethyl-isoquinolin-6-yl)-2-{(S)-3-[2-(3,3-difluoro-pyrrolidin-1-yl)-thiazole-5-sulfonylamino]-2-oxo-pyrrolidin-1-yl}-propionic acid methyl ester], the inhibition at 5 µM turned out to be 41%.
